Like-named read-outs stand apart in the source and are kept apart here.
Assays:
HIV-IIIb = test: Test A: Antiviral Assay in MT4 Cells; format: cell-based, HIV-1; conditions: for inhibition at 0.01 µM: read-out: % inhibition at 0.01 μM; for inhibition at 0.2 µM: read-out: % inhibition at 0.20 μM
Method: (§1) MT-4 cells were next mixed with HIV-IIIb at a multiplicity of infection (m.o.i.) of 0.003 for 1 hour, after which time 35 μL of virus/cell mixture (2000 cells) was immediately added to each well containing 40 μL of diluted compound. The plates were then incubated at 37° C. for 5 days. After 5 days of incubation, 25 μl of 2× concentrated CellTiter-Glo Reagent (catalog #G7571, Promega Biosciences, Inc., Madison, Wis.) was added to each well containing MT-4 cells. Cell lysis was carried out by incubating at room temperature for 10 min and then chemiluminescence was read.

[1] = Test B: Cytotoxicity Assay (same protocol as Test A, uninfected cells); format: cell-based; conditions: human, uninfected MT-4 cells, CellTiter-Glo
Method: as §1, with “read. […] Compound cytotoxicity and the corresponding CC50 values was determined using the same protocol as described in the antiviral assay (Test A) except that uninfected cells were used.” for “read.”

[2] = Human immunodeficiency virus 1, MT4, 120 h, inhibition of virus-induced cell killing, from dose response curve at 0.01 μM (10 nM), MT-4 cells, HIV-IIIb, 5 days, values normalized to 100%
[3] = Human immunodeficiency virus 1, MT4, 120 h, inhibition of virus-induced cell killing, from dose response curve at 0.20 μM (200 nM), MT-4 cells, HIV-IIIb, 5 days, values normalized to 100%
[4] = Human immunodeficiency virus 1, IIIB, MT4, 120 h

SMILES | inhibition at 0.01 µM (HIV-IIIb; [2]) | inhibition at 0.2 µM (HIV-IIIb; [3]) | CC50 at 5 days [1] | inhibition at 0.01 µM (HIV-IIIb; [4]) | inhibition at 0.2 µM (HIV-IIIb; [4])
CCS(=O)(=O)Nc1nn(C)c2c(-c3ccc(C#CC(C)(C)S(=O)(=O)C4CC4)nc3[C@H](Cc3cc(F)cc(F)c3)NC(=O)Cn3nc(C(F)(F)F)c4c3C(F)(F)[C@@H]3C[C@H]43)ccc(Cl)c12 [Example 7] | 94% | 94% | > 57.1 µM |  | 
Cn1nc(NS(C)(=O)=O)c2c(Cl)ccc(-c3ccc(C#CC(C)(C)S(=O)(=O)C4CC4)nc3[C@H](Cc3cc(F)cc(F)c3)NC(=O)Cn3nc(C(F)F)c(Br)c3C(F)F)c21 [Example 58] | 95% | 95% | > 57.1 µM |  | 
CC(C)(C#Cc1ccc(-c2ccc(Cl)c3c(NS(C)(=O)=O)nn(CC(F)(F)F)c23)c([C@H](Cc2cc(F)cc(F)c2)NC(=O)Cn2nc(C(F)(F)F)c3c2C(F)(F)[C@@H]2C[C@H]32)n1)S(=O)(=O)C1CC1 [Example 68] | 100% | 100% | > 50 µM |  | 
Cn1nc(NS(C)(=O)=O)c2c(Cl)ccc(-c3ccc(C#CC(C)(C)S(=O)(=O)C4CC4)nc3[C@H](Cc3cc(F)cc(F)c3)NC(=O)Cn3cnc4ccccc43)c21 [Example 62] | 56% | 93% | 30.7 µM |  | 
CC1(S(=O)(=O)Nc2nn(CC(F)(F)F)c3c(-c4ccc(C#CC(C)(C)S(=O)(=O)C5CC5)nc4[C@H](Cc4cc(F)cc(F)c4)NC(=O)Cn4nc(C(F)(F)F)c5c4C(F)(F)[C@@H]4C[C@H]54)ccc(Cl)c23)CC1 [Example 29] | 100% | 100% | > 57.1 µM |  | 
CC(C)(C#Cc1ccc(-c2ccc(Cl)c3c(NS(=O)(=O)C4CC4)nn(CC(F)F)c23)c([C@H](Cc2cc(F)cc(F)c2)NC(=O)Cn2nc(C(F)(F)F)c3c2C(F)(F)[C@@H]2C[C@H]32)n1)S(=O)(=O)C1CC1 [Example 23] | 100% | 100% | > 57.1 µM |  | 
Cn1nc(NS(=O)(=O)C2(C)CC2)c2c(Cl)ccc(-c3ccc(C#CC(C)(C)S(=O)(=O)C4CC4)nc3[C@H](Cc3cc(F)cc(F)c3)NC(=O)Cn3nc(C(F)F)c4c3C(F)(F)[C@@H]3C[C@H]43)c21 [Example 20] | 89% | 89% | > 57.1 µM |  | 
CC(C)(C#Cc1ccc(-c2ccc(Cl)c3c(NS(C)(=O)=O)nn(C4COC4)c23)c([C@H](Cc2cc(F)cc(F)c2)NC(=O)Cn2nc(C(F)F)c3c2C(F)(F)[C@@H]2C[C@H]32)n1)S(=O)(=O)C1CC1 [Example 18] | 100% | 100% | 41.6 µM |  | 
CC(C)(C#Cc1ccc(-c2ccc(Cl)c3c(NS(C)(=O)=O)nn(CC(F)F)c23)c([C@H](Cc2cc(F)cc(F)c2)NC(=O)Cn2nc(C(F)F)c3c2C(F)(F)CCC3(F)F)n1)S(=O)(=O)C1CC1 [Example 42] | 89% | 89% | > 57.1 µM |  | 
Cn1nc(NS(C)(=O)=O)c2c(Cl)ccc(-c3ccc(C#CC(C)(C)S(=O)(=O)C4CC4)nc3[C@H](Cc3cc(F)cc(F)c3)NC(=O)Cn3ccnc3)c21 [Example 49] | 0% | 90% | > 57.1 µM |  | 
CC(C)(C#Cc1ccc(-c2cccc3c(NS(=O)(=O)C4CC4)nn(CC(F)F)c23)c([C@H](Cc2cc(F)cc(F)c2)NC(=O)Cn2nc(C(F)F)c3c2C(F)(F)[C@@H]2C[C@H]32)n1)S(=O)(=O)C1CC1 [Example 52] | 93% | 93% | > 57.1 µM |  | 
Cn1nc(NS(C)(=O)=O)c2c(Cl)ccc(-c3ccc(C#CC(C)(C)S(=O)(=O)C4CC4)nc3[C@H](Cc3cc(F)cc(F)c3)NC(=O)Cn3cc(C(F)(F)F)nc3C3CC3)c21 [Example 64] | 45% | 94% | > 50 µM |  | 
Cn1nc(NS(C)(=O)=O)c2c(Cl)ccc(-c3ccc(C#CC(C)(C)S(=O)(=O)C4CC4)nc3[C@H](Cc3cc(F)cc(F)c3)NC(=O)Cc3nc4ccccc4[nH]3)c21 [Example 54] | 18% | 99% | 29.8 µM |  | 
CCS(=O)(=O)Nc1nn(CC(F)(F)F)c2c(-c3ccc(C#CC(C)(C)S(=O)(=O)C4CC4)nc3[C@H](Cc3cc(F)cc(F)c3)NC(=O)Cn3nc(C(F)(F)F)c4c3C(F)(F)[C@@H]3C[C@H]43)ccc(Cl)c12 [Example 67] | 13% | 0% | > 50 µM |  | 
CC(C)(C#Cc1ccc(-c2ccc(Cl)c3c(NS(C)(=O)=O)nn(C4COC4)c23)c([C@H](Cc2cc(F)cc(F)c2)NC(=O)Cn2nc(C(F)(F)F)c3c2C(F)(F)[C@@H]2C[C@H]32)n1)S(=O)(=O)C1CC1 [Example 19] | 97% | 97% | > 57.1 µM |  | 
Cn1nc(NS(C)(=O)=O)c2c(Cl)ccc(-c3ccc(C#CC(C)(C)S(=O)(=O)C4CC4)nc3[C@H](Cc3cc(F)cc(F)c3)NC(=O)Cn3nc(C(F)(F)F)cc3C3CC3)c21 [Example 44] | 87% | 92% | > 54.8 µM |  | 
Cn1nc(NS(C)(=O)=O)c2c(Cl)ccc(-c3ccc(C#CC(C)(C)S(=O)(=O)C4CC4)nc3[C@H](Cc3cc(F)cc(F)c3)NC(=O)Cn3ccnn3)c21 [Example 48] | 0% | 0% | > 57.1 µM |  | 
CCS(=O)(=O)Nc1nn(CC(F)F)c2c(-c3ccc(C#CC(C)(C)S(=O)(=O)C4CC4)nc3[C@H](Cc3cc(F)cc(F)c3)NC(=O)Cn3nc(C(F)F)c4c3C(F)(F)[C@@H]3C[C@H]43)ccc(Cl)c12 [Example 9] | 96% | 96% | > 57.1 µM |  | 
Cn1nc(NS(=O)(=O)CC2CC2)c2c(Cl)ccc(-c3ccc(C#CC(C)(C)S(=O)(=O)C4CC4)nc3[C@H](Cc3cc(F)cc(F)c3)NC(=O)Cn3nc(C(F)F)c4c3C(F)(F)[C@@H]3C[C@H]43)c21 [Example 14] | 100% | 100% | > 57.1 µM |  | 
Cn1nc(NS(C)(=O)=O)c2c(Cl)ccc(-c3ccc(C#CC(C)(C)S(=O)(=O)C4CC4)nc3[C@H](Cc3cc(F)cc(F)c3)NC(=O)c3ccn[nH]3)c21 [Example 55] | 86% | 96% | 22.2 µM |  | 
Cn1nc(NS(C)(=O)=O)c2c(Cl)ccc(-c3ccc(C#CC(C)(C)S(=O)(=O)C4CC4)nc3[C@H](Cc3cc(F)cc(F)c3)NC(=O)Cn3cnnc3)c21 [Example 47] | 0% | 0% | > 57.1 µM |  | 
CC1(S(=O)(=O)Nc2nn(CC(F)F)c3c(-c4ccc(C#CC(C)(C)S(=O)(=O)C5CC5)nc4[C@H](Cc4cc(F)cc(F)c4)NC(=O)Cn4nc(C(F)F)c5c4C(F)(F)CCC5(F)F)ccc(Cl)c23)CC1 [Example 37] | 92% | 92% | > 57.1 µM |  | 
Cn1nc(NS(C)(=O)=O)c2c(Cl)ccc(-c3ccc(C#CC(C)(C)S(=O)(=O)C4CC4)nc3[C@H](Cc3cc(F)cc(F)c3)NC(=O)CCn3cccn3)c21 [Example 60] | 100% | 100% | 19.2 µM |  | 
CC1(S(=O)(=O)Nc2nn(CC(F)(F)F)c3c(-c4ccc(C#CC(C)(C)S(=O)(=O)C5CC5)nc4[C@H](Cc4cc(F)cc(F)c4)NC(=O)Cn4nc(C(F)F)c5c4C(F)(F)CCC5(F)F)ccc(Cl)c23)CC1 [Example 31] | 97% | 98% | > 57.1 µM |  | 
Cn1nc(NS(C)(=O)=O)c2c(Cl)ccc(-c3ccc(C#CC(C)(C)S(=O)(=O)C4CC4)nc3[C@H](Cc3cc(F)cc(F)c3)NC(=O)Cn3nnc4ccccc43)c21 [Example 63] | 1% | 100% | 21.8 µM |  | 
Cn1nc(NS(=O)(=O)C2CC2)c2c(Cl)ccc(-c3ccc(C#CC(C)(C)S(=O)(=O)C4CC4)nc3[C@H](Cc3cc(F)cc(F)c3)NC(=O)Cn3nc(C(F)F)c4c3C(F)(F)[C@@H]3C[C@H]43)c21 [Example 12] | 94% | 94% | > 57.1 µM |  | 
Cn1nc(NS(=O)(=O)C2CC2)c2cccc(-c3ccc(C#CC(C)(C)S(=O)(=O)C4CC4)nc3[C@H](Cc3cc(F)cc(F)c3)NC(=O)Cn3nc(C(F)F)c4c3C(F)(F)[C@@H]3C[C@H]43)c21 [Example 40] | 84% | 84% | > 57.1 µM |  | 
Cn1nc(NS(C)(=O)=O)c2c(Cl)ccc(-c3ccc(C#CC(C)(C)S(=O)(=O)C4CC4)nc3[C@H](Cc3cc(F)cc(F)c3)NC(=O)Cn3nc(C(F)F)c4c3C(F)(F)[C@@H]3C[C@H]43)c21 [Example 4] |  |  |  | 92% | 92%
